e = 2'-O-(2-methoxyethyl) (MOE); d = 2'-deoxy (DNA); m = 2'-O-methyl

The data set relates to human FLCN protein. Kind of data set: Antisense inhibition of human FLCN in HEK293T cells, IC50 (Western blot). It counts as cell-based. The following applies: 0 nM to 100 nM ASO, Lipofectamine, 2-day incubation, FLCN protein by Western blot. The source says:
The antisense oligonucleotides listed in this example have all nucleosides linked by modified phosphorothioate backbones. Bolded nucleosides presented in Table 17 indicate nucleosides that are modified with a 2′-MOE sugar modification. Underlined nucleosides presented in Table 17 indicate non-modified DNA nucleosides (deoxynucleotides). Nucleosides that are italicized indicate nucleosides with a 2′-OMe sugar modification. GI81, GI84, GI85, GI86, GI88, GI89 and GI90 are gapped sequences comprising a central sequence of deoxynucleotides, which are flanked on both sides by wing sequences consisting of 2′-MOE modified nucleotides, wherein the second nucleotide of the central sequence from the 5′ end of the oligonucleotide contains a 2′-OMe sugar modification.
These antisense oligonucleotides were tested in the human cell line HEK293T. HEK293T cells were seeded at 400,000 cells per well in a 6-well plate. After 1 day, various concentrations of antisense oligonucleotides ranging from 0 nM to 100 nM were transfected into the cells using Lipofectamine. After a 2-day incubation period, the cells were harvested to obtain whole cell lysates. The whole cell lysates were analyzed by Western blot and probed with a FLCN-specific antibody (CST #3697). The intensity of Western blot bands were quantified by FIJI (Image J) and used to quantify the expression levels of FLCN. The relative expression values of FLCN for the different treatment groups were calculated by normalizing with their respective α-Tubulin loading control, and presented as a percentage to that of the untreated control (which in this case comprised cells not transfected with ASOs). The potencies of these antisense oligonucleotides are reported in the form of IC50 values in Table 17.
For the substance “GI81: gapped phosphorothioate ASO, 2′-MOE wings, 2′-OMe at second gap nucleotide, TGGCTGATATATCCCGGG, Exon 5, SEQ ID NO 21 (sugars from the 5' end e4 d1 m1 d8 e4, all phosphorothioate, methylation of C not given here)”, the concentration for half-maximal inhibition (IC50) is 14 nM.

Take “GI88: gapped phosphorothioate ASO, 2′-MOE wings, 2′-OMe at second gap nucleotide, GCCTGGCGGACAATGCTG, Exon 5, SEQ ID NO 616 (sugars from the 5' end e4 d1 m1 d8 e4, all phosphorothioate, methylation of C not given here)”: half-maximal inhibition (IC50) required 19 nM.

Regarding “GI90: gapped phosphorothioate ASO, 2′-MOE wings, 2′-OMe at second gap nucleotide, CGGGTGCCCTGCAGCAAG, Exon 5, SEQ ID NO 618 (sugars from the 5' end e4 d1 m1 d8 e4, all phosphorothioate, methylation of C not given here)”, the IC50 is 35 nM.

As a reminder, the IC50 is the concentration needed to halve the response being measured. A lower IC50 goes with greater potency.

Values taken from patent US20230272401A1, “COMPOSITIONS FOR FLCN GENE MODULATION AND METHODS THEREOF” (GENETIC INTELLIGENCE, INC, priority 2020, published 2023).
